Results: ChEMBL document CHEMBL5257124, “Design, synthesis and biological evaluation of novel indole-piperazine derivatives as antibacterial agents” (Bioorg Med Chem Lett, 2023)
≈ marks a conversion by molar mass, not a printed value. Calls of active or inactive are those of the source. The calls are words filed in the database; no cut-off is given here.

Assays:
Staphylococcus aureus [1] = assay: Antibacterial activity against methicillin resistant Staphylococcus aureus ATCC 33591 assessed as reduction in bacterial growth; format: functional
Bacillus cereus = assay: Antibacterial activity against Bacillus cereus assessed as reduction in bacterial growth; format: functional
Ralstonia solanacearum = assay: Antibacterial activity against Ralstonia solanacearum assessed as bacterial growth inhibition; format: functional
Pseudomonas syringae = assay: Antibacterial activity against Pseudomonas syringae pv. actinidiae assessed as bacterial growth inhibition; format: functional
Escherichia coli [2] = assay: Antibacterial activity against Escherichia coli ATCC 25922 assessed as reduction in bacterial growth; format: functional
Staphylococcus aureus [3] = assay: Antibacterial activity against Staphylococcus aureus ATCC 25923 assessed as reduction in bacterial growth; format: functional
Escherichia coli [4] = assay: Bactericidal activity against Escherichia coli ATCC 25922 assessed as reduction in bacterial growth; format: functional
Staphylococcus aureus [5] = assay: Bactericidal activity against methicillin resistant Staphylococcus aureus ATCC 33591 assessed as reduction in bacterial growth; format: functional
Staphylococcus aureus [6] = assay: Bactericidal activity against Staphylococcus aureus ATCC 25923 assessed as reduction in bacterial growth; format: functional
Staphylococcus aureus [7] = assay: Antibacterial activity against methicillin resistant Staphylococcus aureus assessed as reduction in bacterial growth at 16 microg/ml measured for 2 hrs; format: functional; conditions: dose 16 µg/ml
Staphylococcus aureus [8] = assay: Antibacterial activity against methicillin resistant Staphylococcus aureus assessed as reduction in bacterial growth at 8 times MIC measured at 24 hrs by time kill assay; format: functional, organism-based
Staphylococcus aureus [9] = assay: Antibacterial activity against methicillin resistant Staphylococcus aureus assessed as reduction in bacterial growth at 8 microg/ml measured for 2 hrs; format: functional; conditions: dose 8 µg/ml
PC-12 = assay: Cytotoxicity against rat PC12 cells assessed as inhibition of cell growth at 20 to 50 microg/ml measured for 24 hrs by MTT assay; format: toxicity, cell-based; conditions: pc-12, 24 h, dose 20-50 µg/ml
BV-2 = assay: Cytotoxicity against mouse BV-2 cells assessed as inhibition of cell growth at 20 to 50 microg/ml measured for 24 hrs by MTT assay; format: toxicity, cell-based; conditions: bv-2, 24 h, dose 20-50 µg/ml
Staphylococcus aureus [10] = assay: Antibacterial activity against methicillin resistant Staphylococcus aureus assessed as reduction in bacterial growth at 4 times MIC measured at 24 hrs by time kill assay; format: functional; design: scale not given: the % may be the effect or the level left
Staphylococcus aureus [11] = assay: Drug resistance against Staphylococcus aureus assessed as fold increase in MIC measured after 19 passaging for 19 days; format: functional; conditions: time 19 day
Staphylococcus aureus [12] = assay: Antibacterial activity against methicillin resistant Staphylococcus aureus assessed as reduction in bacterial growth at 2 times MIC measured at 24 hrs by time kill assay; format: functional; design: scale not given: the % may be the effect or the level left
Histone deacetylase 1 = Histone deacetylase 1 (Homo sapiens, UniProt Q13547); assay: Inhibition of full length C-terminal His/FLAG tagged human recombinant HDAC1 (1 to 482 residues) expressed in baculovirus-infected Sf9 cells using RHK-K(Ac)-AMC as substrate incubated for 2 hrs
Histone deacetylase 1, sequence (Q13547 whole entry, the tested form may be a part): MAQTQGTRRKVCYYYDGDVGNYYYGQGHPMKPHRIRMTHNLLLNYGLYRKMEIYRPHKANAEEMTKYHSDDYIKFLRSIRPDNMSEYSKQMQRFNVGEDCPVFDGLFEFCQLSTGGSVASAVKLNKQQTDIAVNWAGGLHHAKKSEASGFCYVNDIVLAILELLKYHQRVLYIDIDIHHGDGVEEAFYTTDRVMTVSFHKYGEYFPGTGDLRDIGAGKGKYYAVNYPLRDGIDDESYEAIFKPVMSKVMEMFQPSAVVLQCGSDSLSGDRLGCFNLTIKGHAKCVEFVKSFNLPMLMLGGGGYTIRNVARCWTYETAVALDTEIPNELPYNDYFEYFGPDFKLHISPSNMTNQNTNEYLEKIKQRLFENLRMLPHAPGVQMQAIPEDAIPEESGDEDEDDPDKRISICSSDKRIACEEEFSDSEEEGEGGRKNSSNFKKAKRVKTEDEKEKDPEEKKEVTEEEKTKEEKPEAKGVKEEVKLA

Molecule | MIC (Staphylococcus aureus [1]) [mg/L] | MIC (Bacillus cereus) [mg/L] | MIC (Ralstonia solanacearum) [mg/L] | MIC (Pseudomonas syringae) [mg/L] | MIC (Escherichia coli [2]) [mg/L] | MIC (Staphylococcus aureus [3]) [mg/L] | MBC (Escherichia coli [4]) [mg/L] | MBC (Staphylococcus aureus [5]) [mg/L] | MBC (Staphylococcus aureus [6]) [mg/L] | PAE (Staphylococcus aureus [7]) [h] | Activity (Staphylococcus aureus [8]) | PAE (Staphylococcus aureus [9]) [h] | Activity (PC-12) | Activity (BV-2) | Activity (Staphylococcus aureus [10]) [%] | fold change (FC) (Staphylococcus aureus [11]) | Activity (Staphylococcus aureus [12]) [%] | IC50 (Histone deacetylase 1) [µM]
Cn1cc(CN2CCN(Cc3ccc(C(F)(F)F)cc3N3CCCC3)CC2)c2cc(Cl)ccc21 | 64 (≈ 130 µM) | 32 (≈ 65.2 µM) | 64 (≈ 130 µM) | 64 (≈ 130 µM) | 64 (≈ 130 µM) | 32 (≈ 65.2 µM) | – | – | – | – | – | – | – | – | – | – | – | –
Cn1cc(CN2CCN(Cc3ccc(Cl)cc3Cl)CC2)c2cc(Br)ccc21 | 4 (≈ 8.56 µM) | 8 (≈ 17.1 µM) | 32 (≈ 68.5 µM) | 16 (≈ 34.2 µM) | 16 (≈ 34.2 µM) | 8 (≈ 17.1 µM) | 16 (≈ 34.2 µM) | 8 (≈ 17.1 µM) | 16 (≈ 34.2 µM) | – | – | – | – | – | – | – | – | –
Cn1cc(CN2CCN(Cc3ccc(C(F)(F)F)cc3N3CCCC3)CC2)c2cc(Br)ccc21 | 8 (≈ 14.9 µM) | 16 (≈ 29.9 µM) | 16 (≈ 29.9 µM) | 16 (≈ 29.9 µM) | 32 (≈ 59.8 µM) | 16 (≈ 29.9 µM) | – | – | – | – | – | – | – | – | – | – | – | –
Cn1cc(CN2CCN(Cc3ccc(Cl)cc3Cl)CC2)c2cc(C#N)ccc21 | 8 (≈ 19.4 µM) | 8 (≈ 19.4 µM) | 16 (≈ 38.7 µM) | 32 (≈ 77.4 µM) | 32 (≈ 77.4 µM) | 8 (≈ 19.4 µM) | – | – | – | – | – | – | – | – | – | – | – | –
Cn1cc(CN2CCN(Cc3ccc(C(F)(F)F)cc3N3CCCC3)CC2)c2cc(C#N)ccc21 | 16 (≈ 33.2 µM) | 16 (≈ 33.2 µM) | 32 (≈ 66.4 µM) | 32 (≈ 66.4 µM) | 32 (≈ 66.4 µM) | 16 (≈ 33.2 µM) | – | – | – | – | – | – | – | – | – | – | – | –
Cn1cc(CN2CCN(Cc3ccc(Cl)cc3Cl)CC2)c2cc([N+](=O)[O-])ccc21 | 8 (≈ 18.5 µM) | 8 (≈ 18.5 µM) | 32 (≈ 73.8 µM) | 64 (≈ 148 µM) | 64 (≈ 148 µM) | 8 (≈ 18.5 µM) | – | – | – | – | – | – | – | – | – | – | – | –
Cn1cc(CN2CCN(Cc3ccc(C(F)(F)F)cc3N3CCCC3)CC2)c2cc(F)ccc21 | 8 (≈ 16.9 µM) | 8 (≈ 16.9 µM) | 32 (≈ 67.4 µM) | 32 (≈ 67.4 µM) | 32 (≈ 67.4 µM) | 8 (≈ 16.9 µM) | – | – | – | – | – | – | – | – | – | – | – | –
FC(F)(F)c1ccc(CN2CCN(Cc3c[nH]c4ccc(Cl)cc34)CC2)c(N2CCCC2)c1 | 4 (≈ 8.39 µM) | 4 (≈ 8.39 µM) | 8 (≈ 16.8 µM) | 8 (≈ 16.8 µM) | 16 (≈ 33.5 µM) | 4 (≈ 8.39 µM) | 32 (≈ 67.1 µM) | 8 (≈ 16.8 µM) | 8 (≈ 16.8 µM) | 0.61 | Active | 0.36 | Non-Toxic | Non-Toxic | – | – | – | –
Clc1ccc(CN2CCN(Cc3c[nH]c4ccc(Br)cc34)CC2)c(Cl)c1 | 4 (≈ 8.83 µM) | 4 (≈ 8.83 µM) | 8 (≈ 17.7 µM) | 16 (≈ 35.3 µM) | 16 (≈ 35.3 µM) | 4 (≈ 8.83 µM) | 16 (≈ 35.3 µM) | 4 (≈ 8.83 µM) | 8 (≈ 17.7 µM) | 2.91 | – | 1.62 | Non-Toxic | Non-Toxic | 99.9 | <4 | 99.5 | –
O=[N+]([O-])c1ccc2[nH]cc(CN3CCN(Cc4ccc(Cl)cc4Cl)CC3)c2c1 | 8 (≈ 19.1 µM) | 8 (≈ 19.1 µM) | 32 (≈ 76.3 µM) | 32 (≈ 76.3 µM) | 32 (≈ 76.3 µM) | 8 (≈ 19.1 µM) | – | – | – | – | – | – | – | – | – | – | – | –
GENTAMICIN | > 128 | 8 | 16 | 8 | 4 | 4 | 4 | > 128 | 8 | – | – | – | – | – | – | – | – | –
O=C1CN(Cc2ccc(C(=O)NO)cc2)C(=O)[C@H](Cc2c[nH]c3ccccc23)N1 | – | – | – | – | – | – | – | – | – | – | – | – | – | – | – | – | – | 0.405
